Measured values: patent publication US20050215548A1 (Cyclacel Limited, priority 2002, published 2005)
Like-named read-outs stand apart in the source and are kept apart here.

What was measured:
SJSA-1 = experiment: 72-h MTT cytotoxicity assay, SJSA-1; format: cell-based; settings: Homo sapiens
How it was run: (§1)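 Human tumour cells; SJSA-1 = bone sarcoma, wt p53, HDM2 overexpressed. H1299 = large cell lung ca., p53-null, low HDM2. AGS = gastric adenocarcinoma, wt p53. Endpoint: anti-proliferative potency.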

SK-N-MC = experiment: 72-h MTT cytotoxicity assay, SK-N-MC; format: cell-based; settings: Homo sapiens, Neuriepithelioma, read-out: Anti-proliferative activity, 72-h MTT IC50
Protocol: (§2) Representative bisarylsulfonamide compounds were tested on a panel of transformed and non-transformed human cell lines, using a standard 72-h MTT cytotoxicity assay [Haselsberger K et al, ibid].

H1299 = experiment: 72-h MTT cytotoxicity assay, H1299; format: cell-based; settings: Homo sapiens
How it was run: as §1

Lovo = experiment: 72-h MTT cytotoxicity assay, Lovo; format: cell-based; settings: Homo sapiens, Colon adenocarcinoma, read-out: Anti-proliferative activity, 72-h MTT IC50
Protocol: as §2

NaCat = experiment: 72-h MTT cytotoxicity assay, NaCat; format: cell-based; settings: Keratinocyte, Human keratinocytes, read-out: Anti-proliferative activity, 72-h MTT IC50
Protocol: as §2

[1] = tested on: transformed human cell lines; experiment: 72-h MTT panel, average transformed; format: cell-based; settings: average over transformed cell lines, read-out: Anti-proliferative activity, 72-h MTT IC50, Average transformed
Protocol: as §2
(§3) This differential selectivity further supports the notion that the bisarylsulfonamides modulate cellular HDM2 function. It is known that HDM2 amplification is particularly common in soft tissue sarcomas and osteosarcomas [Momand J et al, ibid; Bartel F, Meye A, Wurl P, Kappler M, Bache M, Lautenschlager C, Grunbaum U, Schmidt H, Taubert H; Int. J. Cancer 2001; 95: 168-175].

Messa = experiment: 72-h MTT cytotoxicity assay, Messa; format: cell-based; settings: Homo sapiens, MES-SA, Uterus sarcoma, read-out: Anti-proliferative activity, 72-h MTT IC50
Protocol: as §2

[2] = tested on: E2F transcription factors; experiment: E2F reporter gene assay (A549-derived luciferase reporter cell line); format: cell-based; settings: Homo sapiens
Protocol: A similar system to the p53 reporter assay described above was used, with the exception that it was designed to be responsive to E2F transcription factors rather than p53. An A549-derived cell line stably transfected with an E2F response element and a luciferase reporter gene was created. The genetic expression cassette construct used was from Clontech (Mercury™ Cell Cycle Profiling System). Assays were carried out as described above.
Representative bisarylsulfonamides were tested in the E2F gene reporter assay described in Example 6.

Nci-H460 = experiment: 72-h MTT cytotoxicity assay, Nci-H460; format: cell-based; settings: Homo sapiens, Nci-H460, Large cell lung carcinoma, read-out: Anti-proliferative activity, 72-h MTT IC50
Protocol: as §2

sarcoma cell lines = experiment: 72-h MTT panel, average sarcomas; format: cell-based; settings: Homo sapiens, average over sarcoma cell lines, read-out: Anti-proliferative activity, 72-h MTT IC50, Average sarcomas
Protocol: as §2, §3

HS27 = experiment: 72-h MTT cytotoxicity assay, HS27; format: cell-based; settings: Homo sapiens, HS27, Foreskin fibroblasts, read-out: Anti-proliferative activity, 72-h MTT IC50
Protocol: as §2

HDM2 = target: T1, HDM2 (Homo sapiens, UniProt Q00987); experiment: Fluorescence polarisation competitive HDM2 binding assay
T1 construct: Recombinant HDM2 (1.5 μg per well) in TBS-BSA buffer
How it was run: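 Recombinant HDM2 (1.5 μg/well) was preincubated 5 min at room temperature with serially diluted compound in 50 mM Tris pH 7.4, 150 mM NaCl, 0.1% BSA, 5% DMSO final. Fluorescein-labelled p53 peptide (0.2 μM) was then added for 45 min. Polarisation was read at 485/520 nm and IC50 derived from dose-response curves.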

WI38 = experiment: 72-h MTT cytotoxicity assay, WI38; format: cell-based; settings: Homo sapiens, WI-38, 72 h; WI38, Lung fibroblasts; read-out: Anti-proliferative activity, 72-h MTT IC50
Protocol: as §2

[3] = tested on: non-transformed human cell lines; experiment: 72-h MTT panel, average non-transformed; format: cell-based; settings: average over non-transformed cell lines, read-out: Anti-proliferative activity, 72-h MTT IC50, Average non-transformed
Protocol: as §2, §3

DU145 = experiment: 72-h MTT cytotoxicity assay, DU145; format: cell-based; settings: Homo sapiens, DU-145, 72 h; DU145, Prostate carcinoma; read-out: Anti-proliferative activity, 72-h MTT IC50
Protocol: as §2

Messa-Dx5 = experiment: 72-h MTT cytotoxicity assay, Messa-Dx5; format: cell-based; settings: Homo sapiens, MES-SA/Dx5, 72 h; Messa-Dx5, Uterus sarcoma; read-out: Anti-proliferative activity, 72-h MTT IC50
Protocol: as §2

HeLa = experiment: 72-h MTT cytotoxicity assay, HeLa; format: cell-based; settings: Homo sapiens, Cervical carcinoma, read-out: Anti-proliferative activity, 72-h MTT IC50
Protocol: as §2

U2OS = experiment: 72-h MTT cytotoxicity assay, U2OS; format: cell-based; settings: Homo sapiens, Osteosracoma, read-out: Anti-proliferative activity, 72-h MTT IC50
Protocol: as §2

HT29 = experiment: 72-h MTT cytotoxicity assay, HT29; format: cell-based; settings: Homo sapiens, HT-29, 72 h; HT29, Colon adenocarcinoma; read-out: Anti-proliferative activity, 72-h MTT IC50
Protocol: as §2

A549 = experiment: 72-h MTT cytotoxicity assay, A549; format: cell-based; settings: Homo sapiens, A549, Lung carcinoma, read-out: Anti-proliferative activity, 72-h MTT IC50
Protocol: as §2

SKUT-1 = experiment: 72-h MTT cytotoxicity assay, SKUT-1; format: cell-based; settings: Homo sapiens, SK-UT-1, 72 h; SKUT-1, Uterus leiomyosarcoma; read-out: Anti-proliferative activity, 72-h MTT IC50
Protocol: as §2

[4] = 72 h, SJSA-1, Osteosracoma, Table 2, read-out: Anti-proliferative activity, 72-h MTT IC50
[5] = SJSA-1, 72-h MTT, Table 1, read-out: IC50 Anti-proliferative effect on cell line SJSA-1
[6] = NCI-H1299, 72 h, H1299, Large cell lung carcinoma, Table 2, read-out: Anti-proliferative activity, 72-h MTT IC50
[7] = NCI-H1299, 72-h MTT, Table 1, read-out: IC50 Anti-proliferative effect on cell line H 1299
[8] = after 3-h treatment with test compounds, read-out: IC50 E2F reporter, Non-synchronised cells
[9] = fluorescence polarisation assay, Table 3, read-out: In vitro competitive HDM2 binding assay IC50
[10] = fluorescence polarisation format, Table 1, read-out: IC50 In vitro competitive HDM2 binding assay
[11] = after 3-h treatment, synchronisation with 0.3 mM mimosine for 24 h, followed by wash-out, read-out: IC50 E2F reporter, Synchronised cells

T1 sequence (Q00987 whole entry): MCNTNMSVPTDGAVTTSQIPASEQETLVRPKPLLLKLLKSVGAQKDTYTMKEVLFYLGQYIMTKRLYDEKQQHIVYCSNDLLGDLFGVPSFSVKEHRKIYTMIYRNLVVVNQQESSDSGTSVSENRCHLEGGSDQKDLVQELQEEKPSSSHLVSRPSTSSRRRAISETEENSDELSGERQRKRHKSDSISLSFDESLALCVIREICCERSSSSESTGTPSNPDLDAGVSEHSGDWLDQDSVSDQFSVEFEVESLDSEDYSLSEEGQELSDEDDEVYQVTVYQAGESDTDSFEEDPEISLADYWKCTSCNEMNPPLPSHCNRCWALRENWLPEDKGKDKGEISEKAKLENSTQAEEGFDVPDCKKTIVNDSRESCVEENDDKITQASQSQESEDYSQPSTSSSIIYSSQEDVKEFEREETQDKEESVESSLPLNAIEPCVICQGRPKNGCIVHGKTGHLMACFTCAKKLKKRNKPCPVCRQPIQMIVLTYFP

IC50 [2, 8] [µM] | IC50 (sarcoma cell lines) [µM] | IC50 (HDM2; [9]) [µM] | IC50 (HDM2; [10]) [µM] | Compound | IC50 (SJSA-1; [4]) [µM] | IC50 (SJSA-1; [5]) [µM] | IC50 (SK-N-MC) [µM] | IC50 (H1299; [6]) [µM] | IC50 (H1299; [7]) [µM] | IC50 (Lovo) [µM] | IC50 (NaCat) [µM] | IC50 [1] [µM] | IC50 (Messa) [µM] | IC50 (Nci-H460) [µM] | IC50 (HS27) [µM] | IC50 (WI38) [µM] | IC50 [3] [µM] | IC50 (DU145) [µM] | IC50 (Messa-Dx5) [µM] | IC50 (HeLa) [µM] | further results
23.2 ± 4 | 10.2 ± 2.7 | 26.4 ± 3.4 | 26.4 ± 3.4 | O=[N+]([O-])c1cc(S(=O)(=O)Nc2ccc(Cl)cc2)sc1Cl [Compound 2, 5-Chloro-4-nitrothiophene-2-sulfonic acid (4-chlorophenyl)-amide] | 13.5 | 13.6 ± 1.1 | 3 | 4.4 | 5.1 ± 0.7 | 2.1 | 9.3 | 5.7 ± 3.9 | 13.1 | 3.3 | 17.3 | 22.7 | 21 ± 3.1 | 3.1 | 9.5 | 2.8 | IC50 (SJSA-1; SJSA-1, Example 9, read-out: anti-proliferative IC50 concentration determined for each cell line): 15 µM; IC50 (H1299; NCI-H1299, H1299, Example 9, read-out: anti-proliferative IC50 concentration determined for each cell line): 5 µM; IC50 (U2OS): 6.2 µM; IC50 (HT29): 2.1 µM; IC50 (A549): 5.2 µM; IC50 (SKUT-1): 8.8 µM
28.8 ± 2.3 | 12.1 ± 3.8 | 41.9 ± 5.8 | 41.9 ± 5.8 | O=[N+]([O-])c1cc(S(=O)(=O)Nc2ccc(F)cc2)sc1Cl [Compound 3, 5-Chloro-4-nitrothiophene-2-sulfonic acid (4-fluorophenyl)amide] | 14.1 | 17.1 ± 0.4 | 3.8 | 5.2 | 5.7 ± 0.4 | 2.3 | 10.5 | 6.9 ± 5 | 18.3 | 5.2 | 15.2 | 21.1 | 18.7 ± 3.1 | 3.6 | 12.1 | 2.7 | IC50 [2, 11]: 69 ± 30 µM; IC50 (U2OS): 8.2 µM; IC50 (HT29): 2.3 µM; IC50 (A549): 5.9 µM; IC50 (SKUT-1): 14.1 µM
37.5 ± 12.9 | 13.7 ± 3.1 | 20.4 ± 1.4 | 20.4 ± 1.4 | O=[N+]([O-])c1cc(S(=O)(=O)Nc2ccc(C(F)(F)F)cc2)sc1Cl [Compound 6, 5-Chloro-4-nitrothiophene-2-sulfonic acid (4-trifluoromethylphenyl)amide] | 17.8 | 22.5 ± 0.6 | 2.9 | 4.9 | 8.1 ± 1.3 | 3.9 | 10.6 | 8.4 ± 5.1 | 16 | 8 | 21.4 | 30 | 27.1 ± 4.9 | 6.1 | 15.5 | 3.9 | IC50 [2, 11]: 39 µM; IC50 (U2OS): 10.2 µM; IC50 (HT29): 3.5 µM; IC50 (A549): 10 µM; IC50 (SKUT-1): 15 µM
